# According to ChEMBL document CHEMBL5696443 (Clin Cancer Res, 2016):
# pIC50: −log10 of the molar value.
# Key:
# [1] = target: Calcium/calmodulin-dependent protein kinase type 1 (Homo sapiens) (UniProt Q14012); test: Inhibition of human CAMK1a at 1 uM using KKALRRQETVDAL as substrate in presence of [gamma33P]-ATP by HotSpot assay relative to control
# [2] = target: Lymphokine-activated killer T-cell-originated protein kinase (Homo sapiens) (UniProt Q96KB5); test: Inhibition of human PBK at 1 uM using MBP as substrate in presence of [gamma33P]-ATP by HotSpot assay relative to control
# [3] = target: Serine/threonine-protein kinase Sgk2 (Homo sapiens) (UniProt Q9HBY8); test: Inhibition of human SGK2 at 1 uM using KGSGSGRPRTSSFAEG as substrate in presence of [gamma33P]-ATP by HotSpot assay relative to control
# [4] = target: Ribosomal protein S6 kinase alpha-1 (Homo sapiens, UniProt Q15418); test: Inhibition of human RPS6KA1 using KKLNRTLSVA as substrate in presence of [gamma33P]-ATP by HotSpot assay
# [5] = target: Tyrosine-protein kinase SYK (Homo sapiens) (UniProt P43405); test: Inhibition of human SYK at 1 uM using poly (Glu, Tyr)4:1 as substrate in presence of [gamma33P]-ATP by HotSpot assay relative to control
# [6] = Average plasma concentration in CB-17/SCID mouse at 50 mg/kg administered once a day for 4 days by LC-MS/MS analysis; type: ADME, organism-based; settings: in vivo, 96 h, time 4 day
# [7] = target: Serine/threonine-protein kinase 3 (Homo sapiens) (UniProt Q13188); test: Inhibition of human STK3 at 1 uM using MBP as substrate in presence of [gamma33P]-ATP by HotSpot assay relative to control
# [8] = target: Ephrin type-B receptor 4 (Homo sapiens) (UniProt P54760); test: Inhibition of human EPHB4 at 1 uM using poly (Glu, Tyr)4:1 as substrate in presence of [gamma33P]-ATP by HotSpot assay relative to control
# [9] = target: cGMP-dependent protein kinase 1 (Homo sapiens) (UniProt Q13976); test: Inhibition of human PKG1b at 1 uM using LRRASLG as substrate in presence of [gamma33P]-ATP by HotSpot assay relative to control
# Aurora kinase B = Aurora kinase B (Homo sapiens, UniProt Q96GD4); test: Inhibition of human AURKB using H-LRRASLG as substrate in presence of [gamma33P]-ATP by HotSpot assay
# Ephrin type-B receptor 1 = Ephrin type-B receptor 1 (Homo sapiens, UniProt P54762); test: Inhibition of human EPHB1 using poly (Glu, Tyr)4:1 as substrate in presence of [gamma33P]-ATP by HotSpot assay
# [10] = target: Serine/threonine-protein kinase Chk1 (Homo sapiens, UniProt O14757); test: Inhibition of human CHEK1 using KKKVSRSGLYRSPSMPENLNRPR as substrate in presence of [gamma33P]-ATP by HotSpot assay
# [11] = target: Protein kinase C gamma type (Homo sapiens) (UniProt P05129); test: Inhibition of human PKCG at 1 uM using ERMRPRKRQGSVRRRV as substrate in presence of [gamma33P]-ATP by HotSpot assay relative to control
# [12] = test system: EML4-ALK (Homo sapiens), Q9UM73+Q9HC35 [F1174C]; settings: BaF3, time 3-5 weeks
# [13] = target: Tyrosine-protein kinase ABL1 (Homo sapiens, UniProt P00519, T315I); test: Inhibition of human ABL1 T315I mutant using EAIYAAPFAKKK as substrate in presence of [gamma33P]-ATP by HotSpot assay
# [14] = target: Mitogen-activated protein kinase kinase kinase 14 (Homo sapiens) (UniProt Q99558); test: Inhibition of human MAP3K14 at 1 uM using MBP as substrate in presence of [gamma33P]-ATP by HotSpot assay relative to control
# [15] = test system: Platelet-derived growth factor receptor alpha (Homo sapiens), P16234 [V561D]; test: Inhibition of human PDGFRalpha V561D mutant at 1 uM using poly (Glu, Tyr)4:1 as substrate in presence of [gamma33P]-ATP by HotSpot assay relative to control
# [16] = target: Serine/threonine-protein kinase Nek4 (Homo sapiens) (UniProt P51957); test: Inhibition of human NEK4 at 1 uM using MBP as substrate in presence of [gamma33P]-ATP by HotSpot assay relative to control
# [17] = target: Tyrosine-protein kinase JAK1 (Homo sapiens) (UniProt P23458); test: Inhibition of human JAK1 at 1 uM using MBP as substrate in presence of [gamma33P]-ATP by HotSpot assay relative to control
# [18] = target: Proto-oncogene tyrosine-protein kinase receptor Ret (Homo sapiens, UniProt P07949, V804L); test: Inhibition of human RET V804L mutant using RRRRRRRRRRRVYSTDYYRLFNPS as substrate in presence of [gamma33P]-ATP by HotSpot assay
# [19] = target: Serine/threonine-protein kinase SIK2 (Homo sapiens, UniProt Q9H0K1); test: Inhibition of human SIK2 using AMARAASAAALARRR as substrate in presence of [gamma33P]-ATP by HotSpot assay
# [20] = target: Protein kinase C eta type (Homo sapiens) (UniProt P24723); test: Inhibition of human PKCeta at 1 uM using ERMRPRKRQGSVRRRV as substrate in presence of [gamma33P]-ATP by HotSpot assay relative to control
# [21] = target: Tyrosine-protein kinase receptor UFO (Homo sapiens) (UniProt P30530); test: Inhibition of human AXL at 1 uM using poly (Glu, Tyr)4:1 as substrate in presence of [gamma33P]-ATP by HotSpot assay relative to control
# [22] = target: Tyrosine-protein kinase HCK (Homo sapiens, UniProt P08631); test: Inhibition of human HCK using KVEKIGEGTYGVVYK as substrate in presence of [gamma33P]-ATP by HotSpot assay
# [23] = target: Ephrin type-B receptor 2 (Homo sapiens) (UniProt P29323); test: Inhibition of human EPHB2 at 1 uM using poly (Glu, Tyr)4:1 as substrate in presence of [gamma33P]-ATP by HotSpot assay relative to control
# KARPAS-299 = test: Antitumor activity against ALK positive human KARPAS-299 cells xenografted in SCID beige mouse assessed as tumor growth inhibition at 25 mg/kg, po administered once daily for 14 days relative to control; type: functional; settings: time 14 day
# [24] = target: Glycogen synthase kinase-3 beta (Homo sapiens) (UniProt P49841); test: Inhibition of human GSK3beta at 1 uM using YRRAAVPPSPSLSRHSSPHQ(pS)EDEEE as substrate in presence of [gamma33P]-ATP by HotSpot assay relative to control
# Chain of Tyrosine-protein kinase JAK1 (Homo sapiens) (P23458 whole entry): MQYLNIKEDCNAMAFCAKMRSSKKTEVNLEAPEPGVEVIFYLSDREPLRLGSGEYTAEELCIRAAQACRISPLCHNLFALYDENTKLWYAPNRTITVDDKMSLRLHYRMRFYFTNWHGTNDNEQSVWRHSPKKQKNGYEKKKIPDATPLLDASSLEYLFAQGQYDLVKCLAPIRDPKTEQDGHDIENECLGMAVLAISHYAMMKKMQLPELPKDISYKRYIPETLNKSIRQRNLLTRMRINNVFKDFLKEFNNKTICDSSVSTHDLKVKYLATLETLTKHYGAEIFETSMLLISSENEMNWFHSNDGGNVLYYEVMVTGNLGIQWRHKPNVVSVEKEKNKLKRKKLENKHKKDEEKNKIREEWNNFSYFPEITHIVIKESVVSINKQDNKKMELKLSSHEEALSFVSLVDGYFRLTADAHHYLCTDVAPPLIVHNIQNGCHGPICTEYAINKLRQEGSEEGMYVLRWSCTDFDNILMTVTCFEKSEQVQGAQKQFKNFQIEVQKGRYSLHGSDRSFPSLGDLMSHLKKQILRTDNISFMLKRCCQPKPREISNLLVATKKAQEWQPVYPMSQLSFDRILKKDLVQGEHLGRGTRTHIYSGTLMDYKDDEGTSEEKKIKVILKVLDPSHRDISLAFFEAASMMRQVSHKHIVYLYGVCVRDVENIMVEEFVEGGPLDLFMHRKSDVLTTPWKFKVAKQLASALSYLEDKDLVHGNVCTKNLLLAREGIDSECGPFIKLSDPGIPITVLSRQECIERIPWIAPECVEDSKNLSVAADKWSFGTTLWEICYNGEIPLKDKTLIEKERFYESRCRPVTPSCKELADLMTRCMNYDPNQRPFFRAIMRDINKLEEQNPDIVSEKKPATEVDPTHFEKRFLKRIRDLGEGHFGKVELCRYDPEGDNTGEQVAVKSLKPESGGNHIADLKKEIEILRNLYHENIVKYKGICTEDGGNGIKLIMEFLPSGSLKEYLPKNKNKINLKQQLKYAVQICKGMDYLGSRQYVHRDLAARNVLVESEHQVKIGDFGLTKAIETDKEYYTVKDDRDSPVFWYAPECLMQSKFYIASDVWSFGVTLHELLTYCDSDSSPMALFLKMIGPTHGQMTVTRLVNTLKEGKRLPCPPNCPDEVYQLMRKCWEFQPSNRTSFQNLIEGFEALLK
# Chain of Tyrosine-protein kinase HCK (P08631 whole entry): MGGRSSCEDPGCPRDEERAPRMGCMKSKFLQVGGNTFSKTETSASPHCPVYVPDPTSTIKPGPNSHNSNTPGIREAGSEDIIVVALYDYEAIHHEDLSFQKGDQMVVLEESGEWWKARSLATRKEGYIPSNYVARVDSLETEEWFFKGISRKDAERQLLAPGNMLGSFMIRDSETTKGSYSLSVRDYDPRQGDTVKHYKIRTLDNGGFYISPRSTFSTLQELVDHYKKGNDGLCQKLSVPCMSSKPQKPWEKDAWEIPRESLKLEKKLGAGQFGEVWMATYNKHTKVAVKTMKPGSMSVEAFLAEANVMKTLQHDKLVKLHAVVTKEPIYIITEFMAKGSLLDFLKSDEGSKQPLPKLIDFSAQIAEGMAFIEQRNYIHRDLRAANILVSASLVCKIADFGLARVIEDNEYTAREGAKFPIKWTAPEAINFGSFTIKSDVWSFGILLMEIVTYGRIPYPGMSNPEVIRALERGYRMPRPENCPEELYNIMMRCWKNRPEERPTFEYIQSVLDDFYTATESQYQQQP
# Chain of Tyrosine-protein kinase receptor UFO (Homo sapiens) (P30530 whole entry): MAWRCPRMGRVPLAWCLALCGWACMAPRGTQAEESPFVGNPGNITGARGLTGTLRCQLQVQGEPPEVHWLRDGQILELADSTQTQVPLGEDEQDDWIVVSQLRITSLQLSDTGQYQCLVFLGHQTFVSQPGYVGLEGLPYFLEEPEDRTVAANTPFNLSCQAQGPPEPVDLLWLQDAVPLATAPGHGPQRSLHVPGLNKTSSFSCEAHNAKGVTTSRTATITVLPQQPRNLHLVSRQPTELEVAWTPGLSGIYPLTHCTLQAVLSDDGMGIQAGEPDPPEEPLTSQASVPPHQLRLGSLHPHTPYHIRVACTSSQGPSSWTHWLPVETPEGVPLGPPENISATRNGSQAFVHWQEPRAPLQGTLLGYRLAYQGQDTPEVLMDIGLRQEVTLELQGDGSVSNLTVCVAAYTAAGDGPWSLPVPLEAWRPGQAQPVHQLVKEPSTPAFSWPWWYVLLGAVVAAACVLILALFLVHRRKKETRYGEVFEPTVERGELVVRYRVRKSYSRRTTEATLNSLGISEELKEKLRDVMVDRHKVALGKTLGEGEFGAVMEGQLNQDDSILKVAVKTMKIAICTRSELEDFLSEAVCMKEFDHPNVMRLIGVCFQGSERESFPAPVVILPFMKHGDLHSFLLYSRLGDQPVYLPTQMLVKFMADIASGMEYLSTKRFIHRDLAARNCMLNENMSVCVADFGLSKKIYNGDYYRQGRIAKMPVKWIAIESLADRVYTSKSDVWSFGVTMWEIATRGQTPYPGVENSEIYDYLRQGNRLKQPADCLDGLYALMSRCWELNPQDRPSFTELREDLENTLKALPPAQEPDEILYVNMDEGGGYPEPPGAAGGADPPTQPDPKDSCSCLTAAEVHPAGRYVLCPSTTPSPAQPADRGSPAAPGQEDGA
# Chain of Proto-oncogene tyrosine-protein kinase receptor Ret (P07949 29-1114 V804L limits assumed): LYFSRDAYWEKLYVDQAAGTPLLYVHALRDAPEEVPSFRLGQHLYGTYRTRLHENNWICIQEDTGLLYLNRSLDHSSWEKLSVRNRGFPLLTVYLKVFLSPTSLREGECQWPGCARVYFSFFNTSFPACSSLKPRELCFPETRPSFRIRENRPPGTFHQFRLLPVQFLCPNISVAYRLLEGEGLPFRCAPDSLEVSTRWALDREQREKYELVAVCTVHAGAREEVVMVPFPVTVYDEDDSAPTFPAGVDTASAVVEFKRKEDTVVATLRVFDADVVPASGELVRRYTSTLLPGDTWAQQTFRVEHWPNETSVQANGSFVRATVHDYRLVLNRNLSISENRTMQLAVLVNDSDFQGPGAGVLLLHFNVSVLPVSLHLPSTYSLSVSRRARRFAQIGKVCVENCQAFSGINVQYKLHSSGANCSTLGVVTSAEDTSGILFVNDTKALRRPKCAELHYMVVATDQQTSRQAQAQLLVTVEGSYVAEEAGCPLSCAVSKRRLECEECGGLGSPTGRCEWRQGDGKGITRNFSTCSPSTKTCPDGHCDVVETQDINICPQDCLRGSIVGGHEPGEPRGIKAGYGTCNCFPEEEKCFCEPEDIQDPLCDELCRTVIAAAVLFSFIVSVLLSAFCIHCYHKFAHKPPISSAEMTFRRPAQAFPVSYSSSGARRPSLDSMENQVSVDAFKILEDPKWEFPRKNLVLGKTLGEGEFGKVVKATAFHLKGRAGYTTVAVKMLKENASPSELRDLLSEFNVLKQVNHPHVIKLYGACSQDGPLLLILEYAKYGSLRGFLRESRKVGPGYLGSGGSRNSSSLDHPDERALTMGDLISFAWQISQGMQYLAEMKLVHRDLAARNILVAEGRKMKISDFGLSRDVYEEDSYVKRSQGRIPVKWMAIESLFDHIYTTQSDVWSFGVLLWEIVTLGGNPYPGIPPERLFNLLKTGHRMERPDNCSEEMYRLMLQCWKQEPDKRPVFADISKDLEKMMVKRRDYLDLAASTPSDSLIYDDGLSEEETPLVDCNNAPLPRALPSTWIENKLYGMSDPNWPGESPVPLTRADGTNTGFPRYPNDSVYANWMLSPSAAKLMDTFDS
# Chain of Serine/threonine-protein kinase Sgk2 (Homo sapiens) (Q9HBY8 whole entry): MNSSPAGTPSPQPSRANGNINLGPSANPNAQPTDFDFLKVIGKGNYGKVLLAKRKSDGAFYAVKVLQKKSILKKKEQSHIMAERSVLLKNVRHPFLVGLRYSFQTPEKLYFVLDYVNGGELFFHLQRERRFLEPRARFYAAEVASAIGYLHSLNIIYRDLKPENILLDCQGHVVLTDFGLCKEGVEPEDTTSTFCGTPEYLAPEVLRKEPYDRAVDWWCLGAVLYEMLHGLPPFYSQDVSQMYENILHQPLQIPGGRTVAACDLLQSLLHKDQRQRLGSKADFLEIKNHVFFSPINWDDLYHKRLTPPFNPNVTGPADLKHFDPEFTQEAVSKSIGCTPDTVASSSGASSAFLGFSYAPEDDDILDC
# Chain of Serine/threonine-protein kinase SIK2 (Q9H0K1 whole entry): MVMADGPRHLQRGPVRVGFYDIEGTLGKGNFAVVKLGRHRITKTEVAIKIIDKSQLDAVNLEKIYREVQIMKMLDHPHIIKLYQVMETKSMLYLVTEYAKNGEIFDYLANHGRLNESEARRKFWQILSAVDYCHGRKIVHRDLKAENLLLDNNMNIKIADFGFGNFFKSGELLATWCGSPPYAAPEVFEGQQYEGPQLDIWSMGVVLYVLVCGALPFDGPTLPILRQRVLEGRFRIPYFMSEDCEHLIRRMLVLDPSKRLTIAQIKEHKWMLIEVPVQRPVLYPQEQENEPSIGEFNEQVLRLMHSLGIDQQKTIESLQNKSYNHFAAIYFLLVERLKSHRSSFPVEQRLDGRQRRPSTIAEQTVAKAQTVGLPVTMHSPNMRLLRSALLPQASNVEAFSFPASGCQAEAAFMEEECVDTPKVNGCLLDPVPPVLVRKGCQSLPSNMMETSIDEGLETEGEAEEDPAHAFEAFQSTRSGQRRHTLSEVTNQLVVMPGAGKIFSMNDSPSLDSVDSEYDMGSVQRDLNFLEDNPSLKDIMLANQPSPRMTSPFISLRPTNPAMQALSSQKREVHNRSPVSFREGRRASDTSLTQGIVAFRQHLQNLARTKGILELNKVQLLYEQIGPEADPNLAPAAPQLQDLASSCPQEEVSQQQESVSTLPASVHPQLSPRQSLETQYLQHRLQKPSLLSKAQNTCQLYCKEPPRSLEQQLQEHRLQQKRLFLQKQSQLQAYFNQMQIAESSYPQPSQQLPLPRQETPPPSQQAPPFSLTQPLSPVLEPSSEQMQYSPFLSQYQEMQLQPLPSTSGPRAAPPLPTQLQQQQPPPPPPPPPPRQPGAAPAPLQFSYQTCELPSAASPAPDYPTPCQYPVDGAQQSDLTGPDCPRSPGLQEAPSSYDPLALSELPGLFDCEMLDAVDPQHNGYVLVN
structure (smiles),measurement,setting,value
COc1cc(N2CCC(N3CCN(C)CC3)CC2)ccc1Nc1ncc(Cl)c(Nc2ccccc2P(C)(C)=O)n1 [BRIGATINIB],inhibition,[1],< 90%
same,inhibition,[2],< 90%
same,inhibition,[3],< 90%
same,pIC50,[4],7.52
same,inhibition,[5],< 90%
same,Cave,[6],1870 nM
same,inhibition,[7],< 90%
same,inhibition,[8],< 90%
same,inhibition,[9],< 90%
same,pIC50,Aurora kinase B,< 6.00
same,pIC50,Ephrin type-B receptor 1,< 6.00
same,pIC50,[10],7.52
same,inhibition,[11],< 90%
same,IC90,[12],160 nM
same,pIC50,[13],6.62
same,inhibition,[14],< 90%
same,inhibition,[15],< 90%
same,inhibition,[16],< 90%
same,inhibition,[17],< 90%
same,pIC50,[18],7.57
same,pIC50,[19],6.33
same,inhibition,[20],< 90%
same,inhibition,[21],< 90%
same,pIC50,[22],6.70
same,inhibition,[23],< 90%
same,TGI,KARPAS-299,87%
same,inhibition,[24],< 90%
